Laboratory results: patent US7122543B2, “Substituted benzoic acid derivatives having NF-κB inhibiting action” (Daiichi Suntory Pharma Co., Ltd., priority 2001, dated 2006)
Values after ≈ are worked out from the molar mass of the structure shown.

These molecules were tested on NF-κB (assay: NF-κB luciferase reporter assay in A549/NF-κBLuc cells stimulated with IL-1β). Conditions: A549/NF-κBLuc cells; compound added 1 hour before IL-1β, 3 hours more incubation; luciferase activity as index.
Format: cell-based, human
Method: Effects of Compounds on Human Lung Cancer A549 Cells (A549/NF-κBLuc) Stably Transfected with Luciferase Plasmid (pNFκB-Luc, Stratagene, U.S.A.) Having the NF-κB Regulatory Sequence
Using lipofectamine (Lifetech Oriental K.K., Tokyo), pNFκB-Luc were cotransfected with pSV2neo (Clontech, U.S.A.) into A549 cells (ATCC CCL185) according to the conventional method, and A549/NF-κBLuc stably transfected with pNFκB-Luc were selected by adding G418 sulfate (1 mg/ml, Lifetech Oriental K.K.) to the culture medium.
A compound prepared in an Example was added to A549/NF-κBLuc, then IL-1β which was able to activate the NF-κB was added at 1 hour thereafter and incubation was continued for 3 hours more. It has been made clear by using a luciferase activity as an index that the compound obtained in the Example suppresses the activation of NF-κB by stimulated with IL-1β.

| IC50 value [µg/mL] | Structure (SMILES) |
| --- | --- |
| 15 (≈ 32.6 µM) | COC1=C(OC)C(=O)C(Cc2ccc(-c3ccncc3)c(C(=O)N3CCCCC3)c2)=C(C)C1=O [Example 58a, N-[5-(5,6-Dimethoxy-3-methyl-1,4-benzoquinon-2-yl)methyl-2-(4-pyridyl)benzoyl]piperidine] |
| 45 (≈ 97.7 µM) | COC1=C(OC)C(=O)C(Cc2ccc(-c3ccncc3)c(C(=O)N3CCCCC3)c2)=C(C)C1=O [Example 58b, N-[5-(5,6-Dimethoxy-3-methyl-1,4-benzoquinon-2-yl)methyl-2-(4-pyridyl)benzoyl]piperidine] |

Same assay, conditions: A549/NF-κBLuc cells; word printed in the IC50 column instead of a value

| Structure (SMILES) | IC50 value (result in words) |
| --- | --- |
| COc1c(C)c(Cc2ccc(C(=O)O)c(-c3cccnc3)c2)c(OC)c(OC)c1OC [Example 12, 4-(3,4,5,6-Tetramethoxy-2-methylbenzyl)-2-(3-pyridyl) benzoic acid] | toxic |

Same assay, conditions: Homo sapiens, A549, A549/NF-κBLuc cells; compound added 1 hour before IL-1β, 3 hours more incubation; luciferase activity as index

| Structure (SMILES) | IC50 [µg/mL] |
| --- | --- |
| COc1c(C)c(Cc2ccc(-c3cccnc3)c(C(=O)O)c2)c(OC)c(OC)c1OC [Example 14, 5-(3,4,5,6-Tetramethoxy-2-methylbenzyl)-2-(3-pyridyl)benzoic acid] | > 15 |
| COc1c(C)c(Cc2ccc(-c3ccncc3)c(C(=O)O)c2)c(OC)c(OC)c1OC [Example 15, 5-(3,4,5,6-Tetramethoxy-2-methylbenzyl)-2-(4-pyridyl)benzoic acid] | > 15 |
| COc1cccc(-c2ccc(Cc3c(C)c(OC)c(OC)c(OC)c3OC)cc2C(=O)O)c1 [Example 17, 5-(3,4,5,6-Tetramethoxy-2-methylbenzyl)-2-(3-methoxyphenyl)benzoic acid] | > 15 |
| COc1ccccc1-c1ccc(Cc2c(C)c(OC)c(OC)c(OC)c2OC)cc1C(=O)O [Example 18, 5-(3,4,5,6-Tetramethoxy-2-methylbenzyl)-2-(2-methoxyphenyl)benzoic acid] | > 15 |
| COC1=C(OC)C(=O)C(Cc2ccc(C(=O)O)c(-c3cccnc3)c2)=C(C)C1=O [Example 36, 4-(5,6-Dimethoxy-3-methyl-1,4-benzoquinon-2-yl)methyl-2-(3-pyridyl)benzoic acid] | > 15 |
| COC1=C(OC)C(=O)C(Cc2ccc(C(=O)Nc3ccc(C(F)(F)F)cc3)c(-c3ccccc3)c2)=C(C)C1=O [Example 45, N-[4-(5,6-Dimethoxy-3-methyl-1,4-benzoquinon-2-yl)methyl-2-phenylbenzoyl]-4-trifluoromethyl-aniline] | > 30 |
| COC1=C(OC)C(=O)C(Cc2ccc(C(=O)Nc3ccc(C(F)(F)F)cc3)c(-c3cccnc3)c2)=C(C)C1=O [Example 48, N-[4-(5,6-Dimethoxy-3-methyl-1,4-benzoquinon-2-yl)methyl-2-(3-pyridyl)benzoyl]-4-trifluoromethylaniline] | > 30 |
| COC1=C(OC)C(=O)C(Cc2ccc(C(=O)Nc3ccc(OC)cc3)c(-c3cccnc3)c2)=C(C)C1=O [Example 49, N-[4-(5,6-Dimethoxy-3-methyl-1,4-benzoquinon-2-yl)methyl-2-(3-pyridyl)benzoyl]-4-methoxy-aniline] | 24 |
| COC1=C(OC)C(=O)C(Cc2ccc(-c3ccccc3)c(C(=O)Nc3ccc(OC)cc3)c2)=C(C)C1=O [Example 52, N-[5-(5,6-Dimethoxy-3-methyl-1,4-benzoquinon-2-yl)methyl-2-phenylbenzoyl]-4-methoxyaniline] | > 45 |
| COC1=C(OC)C(=O)C(Cc2ccc(-c3ccccc3)c(C(=O)Nc3ccc(C(F)(F)F)cc3)c2)=C(C)C1=O [Example 53, N-[5-(5,6-Dimethoxy-3-methyl-1,4-benzoquinon-2-yl)methyl-2-phenylbenzoyl]-4-trifluoromethylaniline] | > 30 |
| COC1=C(OC)C(=O)C(Cc2ccc(-c3cccnc3)c(C(=O)Nc3ccc(OC)cc3)c2)=C(C)C1=O [Example 56, N-[5-(5,6-Dimethoxy-3-methyl-1,4-benzoquinon-2-yl)methyl-2-(3-pyridyl)benzoyl]-4-methoxy-aniline] | > 45 |
| COC1=C(OC)C(=O)C(Cc2ccc(-c3cccnc3)c(C(=O)Nc3ccc(C(F)(F)F)cc3)c2)=C(C)C1=O [Example 57, N-[5-(5,6-Dimethoxy-3-methyl-1,4-benzoquinon-2-yl)methyl-2-(3-pyridyl)benzoyl]-4-trifluoromethylaniline] | > 30 |
| COC1=C(OC)C(=O)C(Cc2ccc(-c3ccncc3)c(C(=O)Nc3ccc(OC)cc3)c2)=C(C)C1=O [Example 60a, N-[5-(5,6-Dimethoxy-3-methyl-1,4-benzoquinon-2-yl)methyl-2-(4-pyridyl)benzoyl]-4-methoxyaniline] | > 30 |
| COC1=C(OC)C(=O)C(Cc2ccc(-c3ccncc3)c(C(=O)Nc3ccc(OC)cc3)c2)=C(C)C1=O.Cl [Example 60b, N-[5-(5,6-Dimethoxy-3-methyl-1,4-benzoquinon-2-yl)methyl-2-(4-pyridyl)benzoyl]-4-methoxyaniline] | > 30 |
| COC1=C(OC)C(=O)C(Cc2ccc(-c3ccncc3)c(C(=O)Nc3ccc(C(F)(F)F)cc3)c2)=C(C)C1=O [Example 61, N-[5-(5,6-Dimethoxy-3-methyl-1,4-benzoquinon-2-yl)methyl-2-(4-pyridyl)benzoyl]-4-trifluoromethylaniline] | > 30 |
| COC1=C(OC)C(=O)C(Cc2ccc(-c3ccc(OC)cc3)c(C(=O)Nc3ccc(OC)cc3)c2)=C(C)C1=O [Example 64, N-[5-(5,6-Dimethoxy-3-methyl-1,4-benzoquinon-2-yl)methyl-2-(4-methoxyphenyl]benzoyl)-4-methoxyaniline] | 12 |
| COC1=C(OC)C(=O)C(Cc2ccc(-c3cccc(OC)c3)c(C(=O)Nc3ccc(OC)cc3)c2)=C(C)C1=O [Example 67, N-[5-(5,6-Dimethoxy-3-methyl-1,4-benzoquinon-2-yl)methyl-2-(3-methoxyphenyl)benzoyl]-4-methoxyaniline] | > 45 |
| COC1=C(OC)C(=O)C(Cc2ccc(-c3ccccc3OC)c(C(=O)Nc3ccc(OC)cc3)c2)=C(C)C1=O [Example 68, N-[5-(5,6-Dimethoxy-3-methyl-1,4-benzoquinon-2-yl)methyl-2-(2-methoxyphenyl)benzoyl]-4-methoxyaniline] | > 45 |

More lines, now with the values ahead:

| IC50 [µg/mL] | Structure (SMILES) |
| --- | --- |
| > 15 | COC1=C(OC)C(=O)C(Cc2ccc(C(=O)O)c(-c3ccccc3)c2)=C(C)C1=O [Example 35, 4-(5,6-Dimethoxy-3-methyl-1,4-benzoquinon-2-yl)methyl-2-phenylbenzoic acid] |
| > 45 | COC1=C(OC)C(=O)C(Cc2ccc(-c3ccccc3)c(C(=O)O)c2)=C(C)C1=O [Example 37, 5-(5,6-Dimethoxy-3-methyl-1,4-benzoquinon-2-yl)methyl-2-phenylbenzoic acid] |
| > 45 | COC1=C(OC)C(=O)C(Cc2ccc(-c3cccnc3)c(C(=O)O)c2)=C(C)C1=O [Example 38, 5-(5,6-Dimethoxy-3-methyl-1,4-benzoquinon-2-yl)methyl-2-(3-pyridyl)benzoic acid] |
| > 30 | COC1=C(OC)C(=O)C(Cc2ccc(-c3ccncc3)c(C(=O)O)c2)=C(C)C1=O [Example 39, 5-(5,6-Dimethoxy-3-methyl-1,4-benzoquinon-2-yl)methyl-2-(4-pyridyl)benzoic acid] |
| > 45 | COC1=C(OC)C(=O)C(Cc2ccc(-c3ccc(OC)cc3)c(C(=O)O)c2)=C(C)C1=O [Example 40, 5-(5,6-Dimethoxy-3-methyl-1,4-benzoquinon-2-yl)methyl-2-(4-methoxyphenyl)benzoic acid] |
| 24 | COC1=C(OC)C(=O)C(Cc2ccc(C(=O)N3CCOCC3)c(-c3cccnc3)c2)=C(C)C1=O [Example 47, N-[4-(5,6-Dimethoxy-3-methyl-1,4-benzoquinon-2-yl)methyl-2-(3-pyridyl)benzoyl]morpholine] |
| > 30 | COC1=C(OC)C(=O)C(Cc2ccc(-c3ccccc3)c(C(=O)N3CCOCC3)c2)=C(C)C1=O [Example 51, N-[5-(5,6-Dimethoxy-3-methyl-1,4-benzoquinon-2-yl)methyl-2-phenylbenzoyl]morpholine] |
| 15 | COC1=C(OC)C(=O)C(Cc2ccc(-c3cccnc3)c(C(=O)N3CCCCC3)c2)=C(C)C1=O [Example 54, N-[5-(5,6-Dimethoxy-3-methyl-1,4-benzoquinon-2-yl)methyl-2-(3-pyridyl)benzoyl]piperidine] |
| > 45 | COC1=C(OC)C(=O)C(Cc2ccc(-c3cccnc3)c(C(=O)N3CCOCC3)c2)=C(C)C1=O [Example 55, N-[5-(5,6-Dimethoxy-3-methyl-1,4-benzoquinon-2-yl)methyl-2-(3-pyridyl)benzoyl]morpholine] |
| > 45 | COC1=C(OC)C(=O)C(Cc2ccc(-c3ccncc3)c(C(=O)N3CCOCC3)c2)=C(C)C1=O [Example 59, N-[5-(5,6-Dimethoxy-3-methyl-1,4-benzoquinon-2-yl)methyl-2-(4-pyridyl)benzoyl]morpholine] |
| 40 | COC1=C(OC)C(=O)C(Cc2ccc(-c3cccc(OC)c3)c(C(=O)N3CCCCC3)c2)=C(C)C1=O [Example 65, N-[5-(5,6-Dimethoxy-3-methyl-1,4-benzoquinon-2-yl)methyl-2-(3-methoxyphenyl)benzoyl]-piperidine] |
| 42 | COC1=C(OC)C(=O)C(Cc2ccc(-c3cccc(OC)c3)c(C(=O)N3CCOCC3)c2)=C(C)C1=O [Example 66, N-[5-(5,6-Dimethoxy-3-methyl-1,4-benzoquinon-2-yl)methyl-2-(3-methoxyphenyl)benzoyl]-morpholine] |

Same assay, conditions: Homo sapiens, A549, same value printed in parentheses in μM; A549/NF-κBLuc cells, IL-1β stimulation, luciferase activity

| IC50 [µM] | Structure (SMILES) |
| --- | --- |
| 33 | COC1=C(OC)C(=O)C(Cc2ccc(-c3cccnc3)c(C(=O)N3CCCCC3)c2)=C(C)C1=O [Example 54, N-[5-(5,6-Dimethoxy-3-methyl-1,4-benzoquinon-2-yl)methyl-2-(3-pyridyl)benzoyl]piperidine] |
| 23 | COC1=C(OC)C(=O)C(Cc2ccc(-c3ccc(OC)cc3)c(C(=O)Nc3ccc(OC)cc3)c2)=C(C)C1=O [Example 64, N-[5-(5,6-Dimethoxy-3-methyl-1,4-benzoquinon-2-yl)methyl-2-(4-methoxyphenyl]benzoyl)-4-methoxyaniline] |
| 82 | COC1=C(OC)C(=O)C(Cc2ccc(-c3cccc(OC)c3)c(C(=O)N3CCCCC3)c2)=C(C)C1=O [Example 65, N-[5-(5,6-Dimethoxy-3-methyl-1,4-benzoquinon-2-yl)methyl-2-(3-methoxyphenyl)benzoyl]-piperidine] |
| 85 | COC1=C(OC)C(=O)C(Cc2ccc(-c3cccc(OC)c3)c(C(=O)N3CCOCC3)c2)=C(C)C1=O [Example 66, N-[5-(5,6-Dimethoxy-3-methyl-1,4-benzoquinon-2-yl)methyl-2-(3-methoxyphenyl)benzoyl]-morpholine] |

Same assay, conditions: same value printed in parentheses in μM; A549/NF-κBLuc cells, IL-1β stimulation, luciferase activity

| IC50 [µM] | Structure (SMILES) |
| --- | --- |
| 30 | COC1=C(OC)C(=O)C(Cc2ccc(-c3ccncc3)c(C(=O)N3CCCCC3)c2)=C(C)C1=O [Example 58a, N-[5-(5,6-Dimethoxy-3-methyl-1,4-benzoquinon-2-yl)methyl-2-(4-pyridyl)benzoyl]piperidine] |
| 81 | COC1=C(OC)C(=O)C(Cc2ccc(-c3ccncc3)c(C(=O)N3CCCCC3)c2)=C(C)C1=O [Example 58b, N-[5-(5,6-Dimethoxy-3-methyl-1,4-benzoquinon-2-yl)methyl-2-(4-pyridyl)benzoyl]piperidine] |
